The subject of assay [1] is Mus musculus. Briefly: Lowest daily intraperitoneal dose causing hypervitaminosis A symptoms was determined in a 2-week period in mice. Type of assay: functional.
The subject of assay [2] is Mus musculus. The assay can be described thus: Antipapilloma activity was determined after intraperitoneal administration in mice. In kind it is functional. The following applies: ip.

Experimental findings from ChEMBL document CHEMBL1122165, “Retinoids at the threshold: their biological significance and therapeutic potential” (J Med Chem, 1982) are described below.

The structures appear in SMILES notation.

`CCOC(=O)/C=C(C)/C=C/C=C(C)/C=C/c1c(C)sc(C)c1C` had a Dose in the assay on Mus musculus [1] of 200 mg/kg. Besides, the 50% effect level with Mus musculus [2] (ED50) was put at a dose of 75 mg/kg.

The compound `COc1cc(C)c(/C=C/C(C)=C/C=C(F)/C(C)=C/C(=O)O)c(C)c1C` had a Dose in the assay on Mus musculus [1] of 25 mg/kg. Further, the ED50 (in general, the dose at which the effect has come halfway, by size or by number of responders) in the assay with Mus musculus [2] amounted to 11.5 mg/kg.

`CCOC(=O)/C=C(C)/C=C/C=C(C)/C=C/c1c(Cl)cc(OC)c(C)c1Cl` registered a Dose with Mus musculus [1] of 12 mg/kg. The ED50 with Mus musculus [2] stood at 6 mg/kg.

Take `CCOC(=O)c1ccc(/C=C(\C)c2ccc3c(c2)C(C)(C)CCC3(C)C)cc1` [AROTINOID]: the Dose with Mus musculus [1] was found to be 0.1 mg/kg. It took a dose of 0.05 mg/kg to reach the 50% effect level in the assay on Mus musculus [2] (ED50).

`CCOC(=O)/C=C(C)/C=C/C=C(C)/C=C/c1c(C)cc(OC)c(C)c1C` [ETRETINATE] showed a Dose in the assay on Mus musculus [1] of 50 mg/kg. The compound also showed an ED50 with Mus musculus [2] of 25 mg/kg.

As to `CC1=C(/C=C/C(C)=C/C=C/C(C)=C\C(=O)O)C(C)(C)CCC1` [ISOTRETINOIN], in the assay with Mus musculus [1], the Dose was determined as 400 mg/kg. In addition, in the assay on Mus musculus [2], the ED50 turned out to be 800 mg/kg.

For `CC1=C(/C=C/C(C)=C/C=C/C(C)=C/C(=O)O)C(C)(C)CCC1` [TRETINOIN], the Dose with Mus musculus [1] came out at 80 mg/kg. Besides, in the assay with Mus musculus [2], the ED50 worked out at 400 mg/kg.
